Results as given in US6184207A, “Inhibitors of peptide binding to MHC class II proteins” (Zeneca Limited, priority 1996, dated 2001).

Assays:
[1] = target: T1, HLA-DR4Dw4 (Homo sapiens, UniProt P01903+P01911, A100K/A169T/F76Y/I96L/K127E/L162R/M171V/N62H/P40V/Q125Y/R42H/S133A/S149N/S66Y/V115G/V209L/W38E); test: Test A: Purified HLA-DR peptide in vitro binding assay; settings: inhibition of biotin-FHA 307-320 binding to purified HLA-DR4Dw4, 48 hours
T1 construct: a cDNA encoding the β chain is cloned into the transfer vector pAcUW1; made in house; host or cells: Sf21 insect cells, double-recombinant baculovirus
Description: The utility of the peptides of the formula I, or a pharmaceutically acceptable salt thereof, may be assessed using a variety of standard tests and clinical studies, including those described in International Patent Application, Publication Nos. WO92/02543, WO93/05011 and WO95/07707 (or modifications thereof) and those described below. The peptides of formula I show significant activity in one or more of such tests or studies. Test A: Purified HLA-DR peptide in vitro binding assay. […]. […] The reaction is stopped by adding 2M sulphuric acid (10 μl per well) and the absorbance read at 450 nm to quantify the amount of peptide bound. The inhibitory activity of peptides is obtained by plotting absorbance against concentration. […]
A cDNA encoding the sequence of the α polypeptide is cloned into the transfer vector pacYM1 [Matsuura, Y; Possce, RD; Overton, HA & Bishop, DHL (1987) J. Gen. […] The molecular genetic techniques used to construct the recombinant vectors are likewise readily available in the literature and are most fully described by Sambrook, J; Fritsch, EF & Maniatis T, (1989) [Molecular Cloning. […]

[2] = system: BALB/C mice; test: Test C: Peptide stimulated DTH (delayed type hypersensitivity) in BALB/C mice; assay type: in vivo; settings: ovalbumin DTH footpad swelling, 3-day osmotic mini-pumps
Description: Test C: Peptide stimulated DTH (delayed type hypersensitivity) in BALB/C mice. […] Balb/c female mice (18-20 g), 5 per group, were immunised sub-cutaneously on the flank with 0.1 ml of an emulsion of ovalbumin (Sigma) (2 mg/ml in saline) mixed 1:1 (v/v) with complete Freunds adjuvant (Sigma). Seven days later footpad thickness was detemined using a dual caliper micrometer followed by a challenge in one hind footpad with a 30 μl sub-plantar injection of 1% heat-aggregated ovalbumin protein in saline. Twenty-four hours after antigen challenge, footpads were measured and the DTH response calculated as the percentage increase in footpad thickness in the injected footpad compared to contralateral control. Inhibitors were adminstered by 3-day osmotic mini-pumps (Alzet) implanted 24 hours prior to antigen challenge at doses ranging from 10 mg/kg/day to 0.1 μg/kg/day. The degree of inhibition was calculated by substracting the value for swelling of inhibitor treated footpads from that of the vehicle dosed controls, dividing by the control value and multiplying by 100%.

In the case of `C[C@H](NC(=O)CN1CCCC(NC(=O)[C@@H](NC(=O)[C@H](C)NC(=O)[C@H](C)NC(=O)[C@H](C)NC(=O)[C@H](CCCNC(=N)N)NC(=O)CCCCc2ccccc2)[C@@H](C)O)C1=O)C(=O)Nc1ccc(CC(N)=O)cc1` (stereo partly drawn) [Example 1, Phv-Arg-Ala-Ala-Ala-Thr-II-Ala-Papa-NH2], the “concentration showing significant binding to HLA-DR4Dw4 in Test A” value [1] is reported as no more than 0.1 µM and the “dose at which active in Test C” value [2] is reported as less than 0.1 mg/kg/day.
